Data set [1] concerns the target T1, Cytochrome P450 1A2 (Homo sapiens, UniProt P05177).
T1 sequence (P05177 whole entry): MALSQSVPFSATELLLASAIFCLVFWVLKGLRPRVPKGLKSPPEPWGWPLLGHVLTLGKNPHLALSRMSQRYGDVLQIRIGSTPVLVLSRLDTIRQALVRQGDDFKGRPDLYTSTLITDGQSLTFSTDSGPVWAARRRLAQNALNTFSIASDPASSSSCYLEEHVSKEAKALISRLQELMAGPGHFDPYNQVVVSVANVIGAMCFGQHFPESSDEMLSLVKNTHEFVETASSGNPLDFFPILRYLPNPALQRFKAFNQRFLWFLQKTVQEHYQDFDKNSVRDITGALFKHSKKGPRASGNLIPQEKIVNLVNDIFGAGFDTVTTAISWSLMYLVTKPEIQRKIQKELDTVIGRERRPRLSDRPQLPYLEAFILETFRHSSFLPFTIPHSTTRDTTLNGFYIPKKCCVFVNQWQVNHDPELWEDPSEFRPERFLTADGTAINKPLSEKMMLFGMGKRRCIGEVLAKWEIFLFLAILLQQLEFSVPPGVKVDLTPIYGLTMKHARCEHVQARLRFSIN
Kind of data set: Inhibition of CYP1A2 in human liver microsomes using phenacetin as substrate preincubated for 5 mins followed by NADPH generating system addition and measured after 120 mins by LC-MS/MS. Format: ADME.

Data set [2] is described as follows: Clearance in male Sprague-Dawley rat at 10 mg/kg, iv administered as single dose by LC-MS analysis. Format: ADME, organism-based. Conditions: in vivo.
Data set [3] in a line: Antagonist activity at P2Y1 in rabbit platelet-rich plasma assessed as inhibition of ADP-induced increase in intracellular Ca2+ concentration preincubated for 5 mins followed by ADP addition and measured for 3 mins by fluo4 dye-based fluorescence assay. Format: cell-free. The conditions noted are these: Oryctolagus cuniculus.
A short description of data set [4]: Tmax in male Sprague-Dawley rat at 10 mg/kg, iv administered as single dose by LC-MS analysis. Conditions: in vivo. It counts as ADME, organism-based.
Data set [5] addresses Cytochrome P450 2D6 (Homo sapiens, UniProt P10635). Kind of data set: Inhibition of CYP2D6 in human liver microsomes using dextromethorphan as substrate preincubated for 5 mins followed by NADPH generating system addition and measured after 120 mins by LC-MS/MS. Format: ADME.
Data set [6] in a line: Apparent volume of distribution in male Sprague-Dawley rat at 10 mg/kg, iv administered as single dose by LC-MS analysis. It counts as ADME, organism-based. Conditions: in vivo, read-out: Vz.
Data set [7] can be described thus: Stability of compound in rat plasma assessed as compound degradation at 10 uM incubated up to 45 mins by HPLC analysis. Format: ADME, cell-free. Conditions: 0.75 h.
Data set [8] in a line: AUC (0 to infinity) in male Sprague-Dawley rat at 10 mg/kg, iv administered as single dose by LC-MS analysis. Details: time infinity, route intravenous, dose 10 mg/kg. Conditions: in vivo. It counts as ADME, organism-based.
A short description of data set [9]: Elimination half-life in male Sprague-Dawley rat at 10 mg/kg, iv administered as single dose by LC-MS analysis. It counts as ADME, organism-based. The conditions noted are these: in vivo, read-out: beta t1/2 (converted).
For data set [10], the target named is T2, Cytochrome P450 2A6 (Homo sapiens, UniProt P11509).
T2 sequence (P11509 whole entry): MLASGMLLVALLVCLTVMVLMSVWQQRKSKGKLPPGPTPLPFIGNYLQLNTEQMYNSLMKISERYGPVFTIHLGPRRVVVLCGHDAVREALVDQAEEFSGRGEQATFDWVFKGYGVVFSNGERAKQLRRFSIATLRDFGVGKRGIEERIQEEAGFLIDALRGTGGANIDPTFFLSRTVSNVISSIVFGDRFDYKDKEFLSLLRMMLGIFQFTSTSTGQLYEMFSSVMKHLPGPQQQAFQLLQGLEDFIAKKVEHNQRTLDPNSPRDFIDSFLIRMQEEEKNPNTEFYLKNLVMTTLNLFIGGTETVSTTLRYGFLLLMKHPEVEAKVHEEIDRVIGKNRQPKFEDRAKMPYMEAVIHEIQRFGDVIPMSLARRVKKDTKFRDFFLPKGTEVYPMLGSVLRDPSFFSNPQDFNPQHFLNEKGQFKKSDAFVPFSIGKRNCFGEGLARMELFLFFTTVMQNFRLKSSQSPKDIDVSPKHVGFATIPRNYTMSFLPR
Kind of data set: Inhibition of CYP2A6 in human liver microsomes using coumarin as substrate preincubated for 5 mins followed by NADPH generating system addition and measured after 120 mins by LC-MS/MS. Format: ADME.

In data set [11] the target is Xanthine dehydrogenase/oxidase (Bos taurus, UniProt P80457). Kind of data set: Inhibition of bovine xanthine oxidase assessed as reduction in uric acid formation at 10 uM using xanthine as substrate preincubated for 15 mins followed by substrate addition measured at 30 sec interval for upto 2 mins by spectrophotometric analysis relative to control. The conditions noted are these: cattle, time 17 min.

The target in data set [12] is Cytochrome P450 2C19 (Homo sapiens, UniProt P33261). Nature of the data set: Inhibition of CYP2C19 in human liver microsomes using S-mephenytoin as substrate preincubated for 5 mins followed by NADPH generating system addition and measured after 120 mins by LC-MS/MS. It counts as ADME. A general note: Liver microsomes are vesicles of endoplasmic reticulum, rich in cytochrome P450 enzymes.

Data set [13] is described as follows: Drug metabolism in rat liver microsomes assessed as 1-[(4-Cyanobenzyl)oxy]-2-(3-cyanophenyl)-4-methyl-1H-imidazole-5-carboxylic acid formation at 0.2 uM in presence of NADPH measured up to 90 mins by LC-MS/MS analysis. The conditions noted are these: 1.5 h. It counts as ADME, Microsome.
Data set [14] is described as follows: Metabolic stability of compound in rat liver microsomes assessed as intrinsic clearance per mg protein at 0.2 uM in presence of NADPH measured up to 90 mins by LC-MS/MS analysis. It counts as ADME, Microsome. The conditions noted are these: 1.5 h.
Data set [15] is described as follows: Toxicity in Sprague-Dawley rat model of tail snip bleeding assessed as bleeding weight at 10 mg/kg, po administered via gavage as single dose measured within 2 hrs post tail snip(reference value: 0.08 g). It counts as organism-based. The conditions noted are these: in vivo.
A short description of data set [16]: Toxicity in Sprague-Dawley rat model of tail-snip bleeding assessed as bleeding time at 10 mg/kg, po administered via gavage as single dose measured within 2 hrs post tail snip (reference value: 17.69 min). It counts as organism-based. The conditions noted are these: in vivo.
The nature of data set [17]: Acute toxicity in Kunming mouse assessed as increase in body weight at 2000 mg/kg, ig administered as single dose monitored every day up to14 days. It counts as organism-based. The conditions noted are these: in vivo, po, 336 h, time 14 day.
Data set [18] can be described thus: Toxicity in Sprague-Dawley rat model of tail snip bleeding assessed as increase in bleeding weight at 10 mg/kg, po administered via gavage as single dose measured within 2 hrs post tail snip relative to control. Conditions: in vivo. Format: organism-based.
For data set [19], the system named is Rattus norvegicus. Nature of the data set: Antithrombotic activity in FeCl3-induced Sprague-Dawley rat model of arterial thrombosis assessed as reduction in thrombus weight administered orally once daily for 7 days and measured 2 hrs post last dose. The conditions noted are these: dose 5-20 mg/kg. It counts as functional.
Data set [20] can be described thus: Acute toxicity in Kunming mouse assessed as death at 2000 mg/kg, ig administered as single dose monitored every day up to14 days. Format: organism-based. The conditions noted are these: in vivo, po, 336 h, time 14 day.
For data set [21], the system named is Rattus norvegicus. Nature of the data set: Antithrombotic activity in FeCl3-induced Sprague-Dawley rat model of arterial thrombosis assessed as reduction in thrombus weight at 5 mg/kg, po qd administered as single dose for 7 days and measured 2 hrs post last dose. It counts as functional. Also on record: scale not given: the % may be the effect or the level left. The conditions noted are these: time 7 day.

For data set [22], the system named is Rattus norvegicus. Nature of the data set: Antithrombotic activity in FeCl3-induced Sprague-Dawley rat model of arterial thrombosis assessed as reduction in thrombus weight at 20 mg/kg, po qd administered as single dose for 7 days and measured 2 hrs post last dose. It counts as functional. Details: scale not given: the % may be the effect or the level left. The conditions noted are these: time 7 day.

Bounds are passed on as bounds.

Cytochrome P450 2D6, sequence (P10635 whole entry): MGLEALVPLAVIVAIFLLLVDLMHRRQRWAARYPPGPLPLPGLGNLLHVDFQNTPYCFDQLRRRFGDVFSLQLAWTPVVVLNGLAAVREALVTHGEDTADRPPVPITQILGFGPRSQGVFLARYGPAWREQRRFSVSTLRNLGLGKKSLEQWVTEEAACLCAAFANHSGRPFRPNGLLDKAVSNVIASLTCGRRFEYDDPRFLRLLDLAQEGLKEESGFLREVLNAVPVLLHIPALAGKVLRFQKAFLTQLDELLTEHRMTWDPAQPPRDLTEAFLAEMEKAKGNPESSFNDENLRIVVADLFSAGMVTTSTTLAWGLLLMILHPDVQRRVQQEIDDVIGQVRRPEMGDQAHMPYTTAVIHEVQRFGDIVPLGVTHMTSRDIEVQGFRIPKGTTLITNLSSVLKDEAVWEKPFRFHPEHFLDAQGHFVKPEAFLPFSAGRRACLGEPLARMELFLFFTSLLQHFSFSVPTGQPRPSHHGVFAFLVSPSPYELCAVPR
Xanthine dehydrogenase/oxidase, sequence (P80457 whole entry): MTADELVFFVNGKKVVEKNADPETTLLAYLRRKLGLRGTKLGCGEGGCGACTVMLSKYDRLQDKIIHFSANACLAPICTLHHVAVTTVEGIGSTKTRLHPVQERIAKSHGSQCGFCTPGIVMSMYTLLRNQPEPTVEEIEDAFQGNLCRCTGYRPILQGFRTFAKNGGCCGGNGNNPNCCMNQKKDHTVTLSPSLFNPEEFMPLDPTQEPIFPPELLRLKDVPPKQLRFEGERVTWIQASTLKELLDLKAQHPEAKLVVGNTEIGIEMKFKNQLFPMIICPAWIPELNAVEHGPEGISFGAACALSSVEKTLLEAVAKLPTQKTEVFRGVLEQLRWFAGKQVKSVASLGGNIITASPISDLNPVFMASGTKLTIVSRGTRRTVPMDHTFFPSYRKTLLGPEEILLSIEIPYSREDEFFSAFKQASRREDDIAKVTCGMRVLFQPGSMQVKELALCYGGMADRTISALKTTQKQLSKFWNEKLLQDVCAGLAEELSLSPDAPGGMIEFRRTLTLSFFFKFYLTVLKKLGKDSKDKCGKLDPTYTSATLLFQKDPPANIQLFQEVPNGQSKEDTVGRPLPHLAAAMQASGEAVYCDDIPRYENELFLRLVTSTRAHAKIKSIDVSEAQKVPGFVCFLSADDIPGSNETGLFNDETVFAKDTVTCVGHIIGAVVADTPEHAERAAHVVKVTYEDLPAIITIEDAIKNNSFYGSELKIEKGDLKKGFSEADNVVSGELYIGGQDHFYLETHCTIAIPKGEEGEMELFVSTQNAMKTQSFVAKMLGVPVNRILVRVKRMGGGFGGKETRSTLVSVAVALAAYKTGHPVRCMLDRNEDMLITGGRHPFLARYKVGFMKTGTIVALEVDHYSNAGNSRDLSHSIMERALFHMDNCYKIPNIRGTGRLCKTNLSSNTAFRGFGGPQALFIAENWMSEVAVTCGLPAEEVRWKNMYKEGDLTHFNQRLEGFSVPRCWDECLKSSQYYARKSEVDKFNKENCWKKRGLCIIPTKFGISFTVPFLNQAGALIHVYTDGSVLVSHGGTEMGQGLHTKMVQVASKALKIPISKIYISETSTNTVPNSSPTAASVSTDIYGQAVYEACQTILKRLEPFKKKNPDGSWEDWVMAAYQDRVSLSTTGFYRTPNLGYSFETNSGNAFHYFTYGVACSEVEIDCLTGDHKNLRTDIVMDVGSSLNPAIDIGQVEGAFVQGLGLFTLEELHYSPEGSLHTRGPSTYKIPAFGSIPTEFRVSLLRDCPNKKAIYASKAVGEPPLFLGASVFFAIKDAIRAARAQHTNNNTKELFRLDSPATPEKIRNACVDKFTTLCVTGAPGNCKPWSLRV
Cytochrome P450 2C19, sequence (P33261 whole entry): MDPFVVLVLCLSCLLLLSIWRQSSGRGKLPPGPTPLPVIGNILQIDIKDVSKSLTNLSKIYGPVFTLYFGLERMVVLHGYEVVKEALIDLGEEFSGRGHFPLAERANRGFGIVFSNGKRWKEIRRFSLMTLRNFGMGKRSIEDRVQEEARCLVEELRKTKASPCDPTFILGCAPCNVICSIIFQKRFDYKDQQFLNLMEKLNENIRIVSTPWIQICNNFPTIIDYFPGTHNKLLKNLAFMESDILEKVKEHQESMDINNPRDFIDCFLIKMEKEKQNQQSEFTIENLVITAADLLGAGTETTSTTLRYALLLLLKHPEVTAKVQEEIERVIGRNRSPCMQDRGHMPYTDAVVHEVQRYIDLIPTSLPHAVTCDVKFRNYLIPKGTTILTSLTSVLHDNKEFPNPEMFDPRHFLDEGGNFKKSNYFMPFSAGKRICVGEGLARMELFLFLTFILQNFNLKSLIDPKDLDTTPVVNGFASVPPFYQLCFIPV

On to `Cc1nc(-c2cccc(C#N)c2)n(OCc2ccc(C#N)cc2)c1C(=O)O`, for which the IC50 in data set [1] was over 10 µM; in data set [3], 2.59 µM; in [5], over 10 µM; in data set [10], over 10 µM; in data set [12], over 10 µM. Also, the clearance in data set [2] was 50.5 mL/min/kg. Also, in data set [4], the time to peak (Tmax) stood at 8.4 min. The Vd in [6] came out at 21.3 L/kg. Further, in [7], the Stabilty entry was “Stable”. In data set [8], this compound yielded an AUC(0-inf) of 3500 ng·h/mL. Besides, the half-life in [9] was 4.89 h. Further, the inhibition at 10 µM in data set [11] is under 50%.

Turning to `CCOC(=O)c1c(C)nc(-c2cccc(C#N)c2)n1OCc1ccc(C#N)cc1`, in [13], the Drug metabolism entry is given as “Metabolite_Detected”. In data set [14], the CLH is 0.06 mL/min. The Activity in [15] was 0.4 g; in data set [17], “Non-Toxic”; in data set [19] (time 7.0 day), “Dose-dependent effect”; in data set [20], “Non-Toxic”; in data set [21] it was 22.6%; in [22], 46.7%. The Time in [16] is recorded as 33.94 min. The “fold change (FC)” value in [18] is given as 5. Further, the 50% effective dose (ED50) in [19] (po, 168 h, time 7 day) came out at 20.8 mg/kg.

As usually defined, the IC50 is the point on the concentration scale where inhibition reaches its midpoint. In general, clearance refers to a measure of how efficiently the substance is removed, as volume per time. Usually Tmax stands for the time from dosing to the highest level. The AUC(0-inf) is total exposure, with the tail of the curve extrapolated. For orientation: inhibition means the share of the control response that was lost under treatment. Broadly, the ED50 is the dose at which the effect has come halfway, by size or by number of responders.

(Values after ChEMBL document CHEMBL4673353, “Switching a Xanthine Oxidase Inhibitor to a Dual-Target Antagonist of P2Y and P2Y as an Oral Antiplatelet Agent with a Wider Therapeutic Window in Rats than Ticagrelor” (J Med Chem, 2020).)
